Measurements reported in patent US20130317215A1, “STABLE SYNTHETIC INTERMEDIATE AND METHOD FOR MANUFACTURING SAME” (KYORIN PHARMACEUTICAL CO., LTD., priority 2010, published 2013).
Entries after “also recorded” stand apart in the source; their conditions may differ.

Assays:
[1] = Change in physical properties during storage at room temperature (Test Example 1); assay type: physicochemical; details: for Physical properties, after 10 weeks: sealed in a glass bottle, stored at room temperature for 10 weeks
Description: The compound (5) was sealed in a glass bottle and stored at room temperature for 10 weeks. The compound (6) was sealed in a glass bottle and stored at room temperature for 19 months.

[2] = Storage stability at room temperature, chemical purity by HPLC (Test Example 2); assay type: physicochemical
Experimental: The compounds (5) and (6) were each sealed in a glass bottle and stored at room temperature. At this time, the chemical purity of each compound was measured. After 6 weeks of storage and after 10 weeks of storage, the compound (5) was measured. After 19 months of storage, the compound (6) was measured. The chemical purity was represented by proportions of each compound and a degraded substance (compound (8)), calculated from area ratios measured by HPLC. HPLC measurement conditions are shown below. The chemical purity of the compound (6) was calculated on the basis of the peak of the compound (5).
Measurement wavelength: 220 nm
Column: TSKgel Octyl-80Ts, 4.6 mm I.D.×150 mm
Column temperature: 40° C.
Mobile phase A: acetonitrile
Mobile phase B: diluted phosphoric acid (1→1,000)

Compound: CCc1cc(OC)cc(N)c1C(=O)O [Compound (5)]
- Physical properties, in synthesis ([1]; compound (5), before storage): WHITE POWDER
- Physical properties, after 10 weeks [1]: YELLOW SEMI-SOLID
- Physical properties, after 10 weeks ([1]; listed as compound (5)): the physical properties were changed; also recorded: yellow semi-solid
- Proportion of the compound degraded ([2]; after 10 weeks of storage at room temperature): ≥ 50%
- HPLC purity, peak Compound (5), after 6 weeks ([2]; sealed glass bottle, room temperature, 6 weeks, HPLC area ratio): 94.1%
- HPLC purity, peak Compound (5), after 10 weeks ([2]; sealed glass bottle, room temperature, 10 weeks, HPLC area ratio): 38.4%
